Structures can show the parent of a compound that is named as a salt.
Legend:
ddY-type mice = experiment: Analgesic efficacy test (1): acetic acid writhing test (nociceptive pain model animal); assay type: in vivo; conditions: Mus musculus, 25 min, writhing number, male ddY mice, acetic acid i.p. 25 min after administration, mean ± standard error, read-out: Percent Suppression (%); for inhibition in vivo at 10 mg/kg: oral single dose 10 mg/kg; for inhibition in vivo at 100 mg/kg: oral single dose 100 mg/kg
From the text: A compound of the present invention was orally administered to mice, to carry out an analgesic efficacy test according to acetic acid writhing test (nociceptive pain model animal). As an experimental animal, 4-week old male ddY-type mice were previously bred, and thereafter 8 mice per one group were used in the experiment. A solution or suspension prepared by dissolving or suspending a compound of the present invention in a 0.5% (w/v) aqueous CMC-Na solution was orally administered as a test substance in a single dose. While, to a control group, a 0.5% (w/v) aqueous CMC-Na solution was administered in the same manner. After 25 minutes from administration, the mice were intraperitoneally administered with a 0.7% (v/v) acetic acid/physiological saline at the dose of 10 mL/kg. From 5 minutes thereafter, writhing number in a 10-minute period was counted, and a suppressive rate for each individual (mean±standard error) was calculated by the following formula: […]
In the test for significance difference, Baltlett's test was carried out in the comparison between multiple groups of the group administered with test substance with the control group. In the case of homoscedasticity, Dunnett's multiple comparison test of parametrics, and in the case of heteroscedasticity, Dunnett's multiple comparison test of non-parametrics were used. In addition, in the test of dose dependency, Jockheere-Terpstra's test was used. In all cases, significance difference was considered to be found at P<0.05.

Chung model rat = experiment: Analgesic efficacy test (2): Chung model rat, neuropathic pain model (allodynia, von Frey filament); assay type: in vivo; conditions: Table 13, Wistar male rats, L5 spinal nerve ligation, mean ± standard error
Procedure: An analgesic efficacy test was conducted using a Chung model rat, a neuropathic pain model. Using Wistar male rats after passing 9-week old as an experimental animal, a model rat was prepared in accordance with the method of Kim and Chung (Pain, 50, 355-363, 1992). Specifically, left L5 spinal nerves of rats were exposed under anesthetization with pentobarbital (35 mg/kg, intraperitoneal administration), and firmly ligated with 5-0 silk yarn at L5 dorsal root ganglion peripheral side. The animals were placed in a transparent acrylic cage of which bottom was wire netted The measurement of allodynia was carried out using von Frey filament (manufactured by North Coast Medical Inc.) and a 50% reaction threshold was calculated according to an up-down method, in accordance with methods of Chaplan et al. (J. Neurosci. Method, 53, 55-63, 1994) and Lee et al. (J. Neurophysiol., 81, 2226-2233, 1999). The 50% reaction thresholds were measured twice before injury of the spinal nerve, and those animals of which thresholds were outside the standard were removed from the operation of spinal nerve injury. On or after 14 days from the spinal nerve injury, a 50% reaction threshold was measured, and those showing thresholds of 1 g or more and less than 4 g were used as experimental animal. The group was constituted by 7 rats per group so that an average of a 50% reaction threshold for each group would be nearly even.
A solution or suspension prepared by dissolving or suspending a compound of the present invention in a 0.5% (w/v) aqueous CMC-Na solution was orally administered as a test substance in a single dose while, a 0.5% (w/v) aqueous CMC-Na solution was administered in the same manner to the control group for nerve injury. After 30 minutes from the administration, the measurement of allodynia was carried out, and a 50% reaction threshold (mean±standard error) was calculated. In the test for significance difference, Baltlett's test was carried out in the comparison between multiple groups of the group administered with test substance with the control group for nerve injury. In the case of homoscedasticity, Dunnett's multiple comparison test of parametrics, and in the case of heteroscedasticity, Dunnett's multiple comparison test of non-parametrics were used. In all cases, significance difference was considered to be found at P<0.05.

[1] = Test of blood kinetics in the rats; assay type: in vivo; conditions: rat, plasma, 2 mg/kg, fasted Wistar male rats, oral single dose of mixed solution of five compounds, each compound 2 mg/5 mL/kg, n=5, LC-MS; for AUC(0-inf): read-out: AUC0-∞ (area under the curve for concentration in blood, time 0 to infinite hours); for Cmax: read-out: Cmax (maximum concentration in plasma)
Procedure: Ten milligrams of a compound of the present invention was properly converted to a sodium salt with the same amount of sodium hydroxide, where necessary, and each was dissolved in 5 mL of water. Five compounds each among these aqueous solutions of the compounds of the present inventions were mixed, to prepare a mixed solution containing 0.4 mg/mL each of each compound. Six-week old Wistar SPF male rats that were fasted were orally administered with the mixed solution in a single dose using a gavage tube (each compound 2 mg/5 mL/kg, n=5). At time points of 0.25, 0.5, 1, 2, 4, and 8 hours after the administration, about 150 μL of blood was collected using a heparin-added capillary tube from veins of rat tails. The capillary tubes were centrifuged to collect the plasma. The plasma sample was deprotenized and the supernatant was diluted to prepare each of measurement sample solutions. The concentration of the compound of the present invention in each of measurement sample solutions was quantified using LC-MS, and Cmax (maximum concentration in plasma) and AUC (area under the curve for concentration in blood, time 0 to infinite (∞) hours) of the compounds of the present invention were calculated.

SMILES	inhibition in vivo at 10 mg/kg (ddY-type mice)	50% Reaction Threshold (g), Group Administered with Test Substance, 30 Min. After Administration (Chung model rat; oral single dose 10 mg/kg)	AUC(0-inf) [1]	Cmax [1]	melting point	inhibition in vivo at 100 mg/kg (ddY-type mice)	50% Reaction Threshold (g), Group Administered with Test Substance, 30 Min. After Administration (Chung model rat; oral single dose 1 mg/kg)
N#CC(=Cc1ccccc1F)C(=O)N[C@@H](Cc1c[nH]c2ccccc12)C(=O)O [Compound 22, N^α-[2-Cyano-3-(2-fluorophenyl)acryloyl]-L-tryptophan]	39.9 ± 8.6%	11.34 ± 1.52 g	11400 ng·h/mL	4000 ng/mL	–	–	–
C=CC(=O)N[C@@H](Cc1c[nH]c2ccccc12)C(=O)O (as salt: sodium) [Compound 1, N^α-Acryloyl-L-tryptophan]	–	–	–	–	150 to 151 °C	–	–
O=C(C=Cc1ccccc1O)N[C@@H](Cc1c[nH]c2ccccc12)C(=O)O (as salt: sodium) [Compound 2, N^α-[3-(2-Hydroxyphenyl)acryloyl]-L-tryptophan]	–	–	–	–	172 to 173 °C	–	–
C=CC(=O)N[C@@H](Cc1ccc(OC)cc1)C(=O)O [Compound 38, N-Acryloyl-O^4-methyl-L-tyrosine]	–	–	8500 ng·h/mL	2800 ng/mL	–	52 ± 8.2%	5.44 ± 0.75 g
C=CC(=O)N[C@@H](Cc1c[nH]c2ccccc12)C(=O)O [Compound 1, N^α-Acryloyl-L-tryptophan]	25.7 ± 6.3%	11.18 ± 1.74 g	24200 ng·h/mL	7100 ng/mL	–	–	–
Cn1cc(C[C@H](NC(=O)C=Cc2ccccc2)C(=O)O)c2ccccc21 [Compound 29, 1-Methyl-N^α-(3-phenylacryloyl)-L-tryptophan]	56.8 ± 6.8%	6.45 ± 1.39 g	238000 ng·h/mL	50600 ng/mL	–	–	–
O=C(C=Cc1cccc(F)c1)N[C@@H](Cc1c[nH]c2ccccc12)C(=O)O [Compound 4, N^α-[3-(3-Fluorophenyl)acryloyl]-L-tryptophan]	–	10.73 ± 1.59 g	28700 ng·h/mL	4300 ng/mL	–	42.4 ± 8.3%	–
O=C(C=Cc1cccc(O)c1)N[C@@H](Cc1c[nH]c2ccccc12)C(=O)O (as salt: sodium) [Compound 6, N^α-[3-(3-Hydroxyphenyl)acryloyl]-L-tryptophan]	–	–	–	–	163 to 164 °C	–	–
O=C(N[C@@H](Cc1c[nH]c2ccccc12)C(=O)O)c1cc2ccccc2o1 [Compound 20, N^α-(Benzofuran-2-carbonyl)-L-tryptophan]	–	–	10200 ng·h/mL	3000 ng/mL	–	41.6 ± 6%	6.13 ± 0.75 g
N#Cc1ccccc1C=CC(=O)N[C@@H](Cc1c[nH]c2ccccc12)C(=O)O (as salt: sodium) [Compound 9, N^α-[3-(2-Cyanophenyl)acryloyl]-L-tryptophan]	–	–	–	–	124 to 125 °C	–	–
O=C(C=Cc1ccc(F)cc1F)N[C@@H](Cc1c[nH]c2ccccc12)C(=O)O [Compound 14, N^α-[3-(2,4-Difluorophenyl)acryloyl]-L-tryptophan]	43.2 ± 10.9%	9.38 ± 1.68 g	33900 ng·h/mL	4800 ng/mL	–	–	–
O=C(C=Cc1ccccc1)N[C@@H](Cc1c[nH]c2ccccc12)C(=O)O [Compound 8, N^α-(3-Phenylacryloyl)-L-tryptophan]	67.7 ± 10.3%	8.39 ± 1.30 g	21900 ng·h/mL	5000 ng/mL	–	–	–
O=C(C=Cc1ccc(O)cc1)N[C@@H](Cc1c[nH]c2ccccc12)C(=O)O (as salt: sodium) [Compound 7, N^α-[3-(4-Hydroxyphenyl)acryloyl]-L-tryptophan]	–	–	–	–	158 to 159 °C	–	–
O=C(C=Cc1ccc(F)cc1)N[C@@H](Cc1c[nH]c2ccccc12)C(=O)O [Compound 5, N^α-[3-(4-Fluorophenyl)acryloyl]-L-tryptophan]	51.3 ± 10.9%	6.87 ± 1.28 g	14600 ng·h/mL	2300 ng/mL	–	–	–
COc1ccccc1C=CC(=O)N[C@@H](Cc1c[nH]c2ccccc12)C(=O)O [Compound 11, N^α-[3-(2-Methoxyphenyl)acryloyl]-L-tryptophan]	–	10.55 ± 1.50 g	10600 ng·h/mL	1700 ng/mL	–	60.9 ± 5.9%	–
O=C(C=Cc1ccc(F)cc1)N[C@@H](Cc1c[nH]c2ccccc12)C(=O)O (as salt: sodium) [Compound 5, N^α-[3-(4-Fluorophenyl)acryloyl]-L-tryptophan]	–	–	–	–	140 to 141 °C	–	–
N#Cc1cccc(C=CC(=O)N[C@@H](Cc2c[nH]c3ccccc23)C(=O)O)c1 [Compound 17, N^α-[3-(3-Cyanophenyl)acryloyl]-L-tryptophan]	54.7 ± 6.8%	12.99 ± 1.53 g	–	–	–	–	–
O=C(C=Cc1cc(F)ccc1F)N[C@@H](Cc1c[nH]c2ccccc12)C(=O)O [Compound 15, N^α-[3-(2,5-Difluorophenyl)acryloyl]-L-tryptophan]	–	9.12 ± 1.55 g	19400 ng·h/mL	2800 ng/mL	–	61.3 ± 9.9%	–
O=C(C=Cc1c(F)cccc1F)N[C@@H](Cc1c[nH]c2ccccc12)C(=O)O [Compound 13, N^α-[3-(2,6-Difluorophenyl)acryloyl]-L-tryptophan]	52.9 ± 7.7%	9.94 ± 1.56 g	46300 ng·h/mL	7400 ng/mL	–	–	–
O=C(C=Cc1ccccc1O)N[C@@H](Cc1c[nH]c2ccccc12)C(=O)O [Compound 2, N^α-[3-(2-Hydroxyphenyl)acryloyl]-L-tryptophan]	41.8 ± 4.1%	11.64 ± 1.81 g	–	–	–	–	–
N#Cc1ccccc1C=CC(=O)N[C@@H](Cc1c[nH]c2ccccc12)C(=O)O [Compound 9, N^α-[3-(2-Cyanophenyl)acryloyl]-L-tryptophan]	41 ± 12.9%	–	–	–	–	–	6.28 ± 0.42 g
O=C(C=Cc1cc(C(F)(F)F)cc(C(F)(F)F)c1)N[C@@H](Cc1c[nH]c2ccccc12)C(=O)O [Compound 16, N^α-{3-[3,5-Bis(trifluoromethyl)phenyl]acryloyl}-L-tryptophan]	–	8.38 ± 1.07 g	–	–	–	69 ± 4.9%	–

From US9150510B2, “Amino acid derivative” (NIPPON ZOKI PHARMACEUTICAL CO., LTD., priority 2008, dated 2015)
